Test results reported in publication PMC6154613, “Investigation of the Anti-Leishmania (Leishmania) infantum Activity of Some Natural Sesquiterpene Lactones” (Molecules : A Journal of Synthetic Chemistry and Natural …, 2017).

Experiments:
[1] = system: L. (L.) infantum promastigotes; test: Anti-promastigote activity, MTT viability assay; type: cell-based, Leishmania (Leishmania) infantum; conditions: for IC50: Leishmania infantum, 48 h incubation, MTT, value (SD)
Description: (§1) L. (L.) infantum (MHOM/BR/1972/LD) promastigotes were maintained in M-199 medium supplemented with 10% heat-inactivated fetal bovine serum (FBS) (Gibco, Thermo Fisher Scientific, São Paulo, Brazil), 0.25% hemin (Sigma-Aldrich), and 5% human urine at 24 °C. Amastigotes were obtained from the spleen of previously infected hamsters by differential centrifugation. Macrophages were collected from the peritoneal cavity of BALB/c mice by washing with RPMI-1640 medium supplemented with 10% FBS, and were maintained at 37 °C in a 5% CO2-humidified incubator. Murine fibroblasts NCTC (clone L929 ATCC) were used to evaluate the cytotoxicity of the tested compounds. NCTC cells were maintained in M-199 medium supplemented with 10% FBS and 20 μg/mL gentamicin at 37 °C in a 5% CO2-humidified incubator.
Compounds were dissolved in DMSO and diluted in M-199 medium in 96-well microplates, with the highest concentration of 150 μM. Promastigotes of L. (L.) infantum in the late growth-phase were seeded at 1 × 10^6/well and incubated with the compounds for 48 h. The viability of cells was determined using the MTT assay. An internal control group was used with 0.5% DMSO (maximal concentration). Miltefosine was used as standard drug.
(§2) Data processing and statistical analyses was done with GraphPad Prism® 5.0 (GraphPad Software, Inc. La Jolla, CA, USA). For determination of antileishmanial activity and NCTC cytotoxicity, the IC50 and CC50 values were calculated after normalization using sigmoidal dose-response curves. The evaluation of statistical significance of multiple pairs was done with a Tukey's range test, which corrects for the increased probability of a type I error during multiple comparison.

[2] = Mammalian cytotoxicity, MTT assay; type: cell-based, murine; conditions: mouse, NCTC murine fibroblasts, 48 h, MTT, value (SD); for CC50 at 48 h: NCTC clone L929 fibroblasts
Description: as §1
(§3) NCTC cells were seeded at 6 × 10^4 in 96-well microplates and incubated with the compounds for 48 h. An internal control group was used with 0.5% DMSO (maximal concentration). The quantification of viable cells was assessed by the MTT assay. The selectivity index (SI) was determined using the following equation: SI = CC50 in NCTC cells / IC50 against amastigotes.
as §2

[3] = system: L. (L.) infantum intracellular amastigotes; test: Activity against intracellular amastigotes in peritoneal macrophages, Giemsa staining and light microscopy; type: cell-based, Leishmania (Leishmania) infantum; conditions: for IC50: Leishmania infantum, Peritoneal macrophage, intracellular amastigotes in murine peritoneal macrophages, 120 h, highest concentration 100 μM, value (SD)
Description: as §1
Murine peritoneal macrophages were collected from the peritoneal cavity of BALB/c mice, and the macrophages were seeded at 1 × 10^5/well for 24 h in a 16-well slide. Amastigotes were prepared (as described previously), seeded at a ratio 1:10 (macrophages:amastigotes) and kept at 37 °C in a 5% CO2-humidified incubator for 24 h. Test compounds were incubated to the highest concentration of 100 μM with infected macrophages for 120 h. Miltefosine was used as a standard drug. Subsequently, the cells were fixed with methanol, stained with Giemsa (Merck KGaA, Darmstadt, Germany), and observed using a light microscope. The parasite burden was determined by the number of infected macrophages out of 400 cells.
as §2

[4] = system: Murine fibroblasts NCTC (clone L929 ATCC); test: Mammalian cytotoxicity, MTT assay; type: cell-based; conditions: NCTC cells
Description: as §1, §3, §2

[5] = system: L. (L.) infantum promastigotes plasma membrane; test: Plasma membrane permeability, SYTOX Green; type: cell-based, Leishmania (Leishmania) infantum; conditions: 3 and 6 μM, 60 min, compared with untreated parasites
Description: Late-growth-phase (non-stationary) promastigotes were incubated with the probe SYTOX Green (Molecular Probes Inc., Eugene, OR, USA), as previously described. […] 1 was added at 3 and 6 μM to 1 × 10^6 cells/well, at 24 °C. The fluorescence was measured every 20 min (0–80 min). At the end of the assay (80 min), 0.1% Triton X-100 was added to all wells to obtain the maximum permeabilization of parasites. Fluorescence intensity was determined using a fluorimetric microplate reader (FilterMax F5 Multi-Mode Microplate Reader-Molecular Devices, Sunnyvale, CA, USA) with excitation and emission wavelengths of 485 and 520 nm, respectively. The following internal controls were used during the evaluation: (i) the background fluorescence of the compound at the respective wavelengths; (ii) the possible interference of DMSO; (iii) untreated promastigotes; and (iv) medium without any cells. Samples were tested in duplicate.

[6] = system: L. (L.) infantum promastigotes; test: Mitochondrial membrane potential, rhodamine 123, flow cytometry; type: cell-based, Leishmania (Leishmania) infantum; conditions: 6 μM, 1 h, compared with untreated parasites
Description: The Δψm and ROS content of promastigotes treated with compound 1 were determined using the fluorescence probes rhodamine 123 and H2DCFDA (Molecular Probes Inc., Eugene, OR, USA), respectively, and further evaluated by flow cytometry. […] The parasites were incubated in HANKS’ balanced salts solution (HBSS; Sigma-Aldrich, Carlsbad, CA, USA), supplemented with 10 mM D-Glucose, at 26 °C for 1 h. Afterwards the parasites were washed and stained with rhodamine 123 (0.3 μg/mL) or H2DCFDA (5 μM) for 15 min under absence of light. The washed parasites were resuspended in PBS and the fluorescence was measured in a Flow Cytometer Attune Nxt (ThermoFisher Scientific, Waltham, MA, USA) using the forward scatter (FSC, relative cell size) and the side scatter detectors (SSC, cell granulometry or internal complexity), FL1-A (detecting fluorescence emission 530 ± 15 nm), and Attune Nxt software. As control, untreated promastigotes (not stained with Rd123 or H2DCFDA) served to monitor the basal fluorescence. […] Samples were tested in duplicate. Two independent assays were performed.

[7] = system: L. (L.) infantum promastigotes; test: ROS production, H2DCFDA, flow cytometry; type: cell-based, Leishmania (Leishmania) infantum
Description: The Δψm and ROS content of promastigotes treated with compound 1 were determined using the fluorescence probes rhodamine 123 and H2DCFDA (Molecular Probes Inc., Eugene, OR, USA), respectively, and further evaluated by flow cytometry. Briefly, 2 × 10^6 promastigotes/well cultured until the late growth-phase were treated with […] of 1 (corresponding to the IC99 value obtained with 1 × 10^6 parasites/well). The parasites were incubated in HANKS’ balanced salts solution (HBSS; Sigma-Aldrich, Carlsbad, CA, USA), supplemented with 10 mM D-Glucose, at 26 °C for 1 h. Afterwards the parasites were washed and stained with rhodamine 123 (0.3 μg/mL) or H2DCFDA (5 μM) for 15 min under absence of light. The washed parasites were resuspended in PBS and the fluorescence was measured in a Flow Cytometer Attune Nxt (ThermoFisher Scientific, Waltham, MA, USA) using the forward scatter (FSC, relative cell size) and the side scatter detectors (SSC, cell granulometry or internal complexity), FL1-A (detecting fluorescence emission 530 ± 15 nm), and Attune Nxt software. As control, untreated promastigotes (not stained with Rd123 or H2DCFDA) served to monitor the basal fluorescence. […] Samples were tested in duplicate. Two independent assays were performed.

[8] = system: peritoneal macrophages of BALB/c mice; test: Nitric oxide production in macrophages, Griess assay; type: cell-based, Mus musculus; conditions: 3 μM, 24 h, similar levels as LPS
Description: The NO production of macrophages treated with 1 was performed using the Griess assay. Briefly, 1 × 10^5/well peritoneal macrophages of BALB/c mice were seeded overnight in a 96-well plate. Fresh medium containing compound 1 at 3 µM (corresponding to the CC25 value obtained with NCTC cells) or 5 µg/mL LPS (positive control) were added and incubated for 24 h at 37 °C. Afterwards the NO content of each of the cultures’ supernatant was analysed using the Griess assay. The samples’ NO content was determined by means of a standard curve prepared with NaNO2 at concentrations from 0 to 400 μM.

[9] = system: L. (L.) infantum promastigotes; test: Ultrastructural analysis by transmission electron microscopy; type: cell-based, Leishmania (Leishmania) infantum; conditions: 0.5-4 h incubation; 1 μM or 120 μM
Description: Ultrastructural studies were performed with promastigotes treated with compound 1 by TEM. L. (L.) infantum promastigotes in the late growth phase were washed and incubated with 120 μM of 1 (corresponding to the IC99 value obtained with 1 × 10^6 parasites/well) at 2 × 10^7/well in 200 μL M-199 medium. Compound incubation was performed for 0.5, 1, 2, 3, and 4 h under the previously described growth conditions. After centrifugation at 2800 rpm for 10 min, the parasites were fixed with 1 mL glutaraldehyde and the sample processing was performed according to Duarte et al.. The TEM imaging was performed on a JEOL 1011 transmission electron microscope (Peabody, MA, USA).

[10] = system: L. (L.) mexicana; parameters: method as in PMID 18576826; conditions: cited from earlier work
[11] = system: axenic amastigotes (extracellular) of L. (L.) amazonensis; parameters: method as in PMID 24913205; conditions: cited from earlier work

| SMILES | IC50 [1] | CC50 at 48 h [2] | IC50 [3] | CC50 [2] | also measured |
| --- | --- | --- | --- | --- | --- |
| C=C1C(=O)O[C@@H]2C[C@@]3(C)CCC[C@H](C)C3=C[C@H]12 [Alantolactone (5), Alantolactone] | 9.94 µM | 11 µM | – | – | – |
| C=C1C(=O)O[C@@H]2[C@H]3C(C)=CC[C@@]34O[C@@]4(C)CC[C@@H]12 [Arglabin (3), Arglabin] | 30 µM | – | 7.33 µM | 39.4 µM | – |
| C=C1C(=O)O[C@@H]2/C=C(/CO)C3=CC(=O)[C@@](C)(C[C@@H](OC(=O)/C(C)=C/C)[C@@H]12)O3 [Budlein A (7), Budlein A] | 28 µM | – | – | 9.05 µM | – |
| C=C(CO)C(=O)O[C@H]1CC(=C)[C@@H]2C[C@H](O)C(=C)[C@@H]2[C@H]2OC(=O)C(=C)[C@@H]21 [Cynaropicrin (4), Cynaropicrin] | 30.6 µM | 33.5 µM | 6.88 µM | – | – |
| C=C1C(=O)OC2CC(C)C3C=CC(=O)C3(C)C(OC(C)=O)C12 (centres unmarked) [Helenalin acetate (1), Helenalin acetate] | 3.53 µM | – | 1.15 µM | 8.12 µM | IC99 value ([1]; promastigotes, 1 × 10^6 parasites/well): 6 µM; infection of macrophages (light microscopy) ([3]; 0.33 µM, Figure S1c): relatively high amastigote number; infection of macrophages (light microscopy) ([3]; 1 µM, Figure S1b): A large number of infected macrophages is visible; infection of macrophages (light microscopy) ([3]; 3 µM, Figure S1a): very few infected macrophages with each very few amastigotes; CC25 value [4]: 3 µM; SYTOX Green fluorescence (plasma membrane permeability) [5]: No significant increase of SYTOX Green fluorescence; decrease of Rd123 fluorescence (Δψm) [6]: 60%; ROS production (H2DCFDA) ([7]; compound 1, 1 h of treatment): no alteration of ROS; production of NO [8]: significantly increased the production of NO; ultrastructural alterations (TEM) [9]: intense cytoplasmatic vacuolization, formation of autophagosomes, swelling of the mitochondrion, and chromatin decondensation; alteration of the plasma membrane ([10]; L. (L.) mexicana promastigotes, long-term treatment): no alteration of the plasma membrane |
| C=C1C(=O)O[C@H]2C[C@@H](C)[C@@H]3C=CC(=O)[C@@]3(C)[C@H](O)[C@H]12 [Mexicanin I (2), Mexicanin I] | 4.89 µM | – | 1.73 µM | 9.2 µM | activity against L. (L.) mexicana [10]: activity against L. (L.) mexicana at low concentrations |
| CCCCCCCCCCCCCCCCOP(=O)([O-])OCC[N+](C)(C)C [Miltefosine, reference compound] | 16.7 µM | – | – | – | – |
| C=C1C(=O)O[C@H]2[C@H]1CC/C(C)=C/CC[C@@]1(C)O[C@@H]21 [Parthenolide (6), Parthenolide] | 59.1 µM | 58.2 µM | 89.2 µM | – | effect on mitochondrial membrane potential [11]: mitochondrial depolarization |
| C=C1C(=O)O[C@@H]2C[C@@H](C)[C@@H]3C=CC(=O)[C@@]3(C)[C@@H](O)[C@H]12 [helenalin, reference compound] | – | – | – | – | activity against L. (L.) mexicana [10]: activity against L. (L.) mexicana at low concentrations |
| CC[C@H]1/C=C/C=C/C[C@@H](C)[C@H](O)[C@@](C)(O)C(=O)[C@@H](C)[C@H](O)[C@@H](C)C(=O)[C@@H](C)[C@H](O)[C@@H](C)/C=C/C(=O)O[C@@H]2[C@H](C)[C@H](CC1)O[C@]1(CC[C@H](C)[C@H](C[C@@H](C)O)O1)[C@H]2C [oligomycin, reference compound] | – | – | – | – | ROS production (H2DCFDA) ([7]; oligomycin 20 μM, positive control): increased the ROS production over time |
